Patent US20240261417A1, “SOS1 DEGRADING AGENT AND PREPARATION METHOD THEREFOR AND APPLICATION THEREOF” (SHANGHAI LEADINGTAC PHARMACEUTICAL CO. LTD., priority 2021, published 2024)

Target: T1, KRAS-G12C/SOS1 (Homo sapiens, UniProt Q07889)
T1 construct: purchased Cisbio 63ADKOOOCB16PEG
T1 sequence (Q07889 1-1333): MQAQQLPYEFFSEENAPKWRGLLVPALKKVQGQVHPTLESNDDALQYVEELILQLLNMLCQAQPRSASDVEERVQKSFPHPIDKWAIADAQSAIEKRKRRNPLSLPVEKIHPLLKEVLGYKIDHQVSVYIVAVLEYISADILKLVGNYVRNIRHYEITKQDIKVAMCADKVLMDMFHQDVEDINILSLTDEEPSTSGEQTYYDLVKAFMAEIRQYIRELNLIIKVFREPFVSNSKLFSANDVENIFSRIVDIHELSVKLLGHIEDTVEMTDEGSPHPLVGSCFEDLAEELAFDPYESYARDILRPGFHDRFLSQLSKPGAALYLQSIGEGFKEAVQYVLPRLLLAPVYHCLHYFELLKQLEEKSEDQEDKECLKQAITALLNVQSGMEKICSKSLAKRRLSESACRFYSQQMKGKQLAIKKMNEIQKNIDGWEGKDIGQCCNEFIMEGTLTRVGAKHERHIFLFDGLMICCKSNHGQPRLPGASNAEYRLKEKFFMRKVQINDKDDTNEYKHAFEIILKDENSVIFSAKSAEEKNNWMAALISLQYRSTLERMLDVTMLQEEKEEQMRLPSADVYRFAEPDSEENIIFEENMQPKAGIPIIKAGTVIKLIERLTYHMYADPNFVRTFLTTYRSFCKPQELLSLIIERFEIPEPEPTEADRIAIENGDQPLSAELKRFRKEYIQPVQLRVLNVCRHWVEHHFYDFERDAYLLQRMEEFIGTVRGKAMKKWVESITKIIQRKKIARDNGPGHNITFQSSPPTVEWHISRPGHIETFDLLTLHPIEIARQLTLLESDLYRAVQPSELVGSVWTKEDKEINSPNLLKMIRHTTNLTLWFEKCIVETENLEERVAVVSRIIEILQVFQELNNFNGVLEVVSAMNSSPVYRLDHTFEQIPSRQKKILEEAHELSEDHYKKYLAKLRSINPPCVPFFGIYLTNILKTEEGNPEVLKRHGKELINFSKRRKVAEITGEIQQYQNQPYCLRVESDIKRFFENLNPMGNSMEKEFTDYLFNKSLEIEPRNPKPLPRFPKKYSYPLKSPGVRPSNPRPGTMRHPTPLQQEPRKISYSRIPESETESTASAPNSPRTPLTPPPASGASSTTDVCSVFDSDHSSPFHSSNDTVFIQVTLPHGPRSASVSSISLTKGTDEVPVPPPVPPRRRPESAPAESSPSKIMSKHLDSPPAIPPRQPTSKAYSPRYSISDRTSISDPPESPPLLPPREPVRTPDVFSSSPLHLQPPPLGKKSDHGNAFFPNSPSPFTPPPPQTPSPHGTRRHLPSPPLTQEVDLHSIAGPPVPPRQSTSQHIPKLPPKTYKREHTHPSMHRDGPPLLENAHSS
Assay: KRAS-G12C/SOS1 binding assay (HTRF)
Settings: inhibition of KRAS-G12C/SOS1 binding
Outline: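 HTRF competition assay with Tag1-SOS1 and Tag2-KRAS-G12C (10 μM GTP). Compounds at 10000 nM-0.04 nM final (0.5% DMSO), incubated 15 min at 25° C, then anti-tag Tb3+/XL665 antibodies added for 3 h on ice. The 665/620 nm ratio was compared with control and IC50 derived by nonlinear fit.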

Compound `COc1cc2nc(C)nc(N[C@H](C)c3cc(N)cc(C(F)(F)F)c3)c2cc1[C@H]1CC[C@H](C(=O)N2CCN(CC3CCC4(CC3)CCN(C(=O)c3ccc(Cl)c(N5CCC(=O)NC5=O)c3)CC4)CC2)CC1` [Example 2, 1-(5-(9-((4-((1R,4R)-4-(4-(((R)-1-(3-amino-5-(trifluoromethyl)phenyl)ethyl)amino)-7-methoxy-2-methylquinazolin-6-yl)cyclohexane-1-carbonyl)piperazin-1-yl)methyl)-3-azaspiro[5.5]undecane-3-carbonyl)-2-chlorophenyl)dihydropyrimidine-2,4(1H,3H)-dione] has an IC50 of at most 15 nM.
`COc1cc2nc(C)nc(N[C@H](C)c3cc(N)cc(C(F)(F)F)c3)c2cc1[C@H]1CC[C@H](C(=O)N2CCN(CCC3CCC4(CC3)CCN(C(=O)c3ccc(Cl)c(N5CCC(=O)NC5=O)c3)CC4)CC2)CC1` [Example 1, 1-(5-(9-(2-(4-((1R,4R)-4-(4-(((R)-1-(3-amino-5-(trifluoromethyl)phenyl)ethyl)amino)-7-methoxy-2-methylquinazolin-6-yl)cyclohexane-1-carbonyl)piperazin-1-yl)ethyl)-3-azaspiro[5.5]undecane-3-carbonyl)-2-chlorophenyl)dihydropyrimidine-2,4(1H,3H)-dione] was tested, and the IC50 was 15 to 30 nM.
